From patent US5656588A, “Wound healing formula” (Wake Forest University, priority 1994, dated 1997)
Entries after “also recorded” stand apart in the source; their conditions may differ. Where two headings read alike, the source gives them in different places.

What was measured:
wound healing [1] = details: supplementation of the diet, animals and humans; cited from earlier work
wound healing [2] = experiment: Wound strength (abdominal bursting strength) in animals given carnosine or histidine following surgery; format: in vivo; details: supplement to a complete diet, mammals not nutritionally deprived
Text: Pursuant to the present invention, therapeutically effective amounts of carnosine are supplemented with a complete diet. […] Previous studies in this area have advocated that the wound healing effects can be achieved with histamine or histidine. […] Table 2 illustrates comparative results between carnosine and histidine administered to animals following surgery.

[3] = tested on: gastric and duodenal ulcers; details: food deprived rats; cited from earlier work

In the case of `N=C(N)NCCC[C@H](N)C(=O)O` [arginine], the “Effect on wound healing (in words)” value (wound healing [1]) is listed as “improves wound healing”.
For `NCCC(=O)N[C@@H](Cc1c[nH]cn1)C(=O)O` [carnosine, β-alanyl-histidine], the “Effect on wound healing (in words)” value (wound healing [2]) was “improves wound healing; also recorded: more effective in stimulating wound healing than histidine treatment”.
In the case of N-acetyl-L-carnosine aluminum, the “Protection against ulcer formation (in words)” value [3] is listed as “protects against the formation of gastric and duodenal ulcers”.
